Values of other authors in EP3932402A1, “ADAM17 INHIBITORS FOR USE IN THE PREVENTION AND/OR TREATMENT OF COVID-19” (Max-Delbrück-Centrum für Molekulare Medizin in der …, priority 2020, dated 2022).

How the values were obtained:
ADAM17, ADAM10 = conditions: in combination with trastuzumab; Newton et al
ADAM17 = molecular target: T1, ADAM17 (Homo sapiens, UniProt P78536); conditions: Moss et al., 2008
T1 construct: host or cells: patients (endogenous enzyme)
T1 sequence (P78536 215-824): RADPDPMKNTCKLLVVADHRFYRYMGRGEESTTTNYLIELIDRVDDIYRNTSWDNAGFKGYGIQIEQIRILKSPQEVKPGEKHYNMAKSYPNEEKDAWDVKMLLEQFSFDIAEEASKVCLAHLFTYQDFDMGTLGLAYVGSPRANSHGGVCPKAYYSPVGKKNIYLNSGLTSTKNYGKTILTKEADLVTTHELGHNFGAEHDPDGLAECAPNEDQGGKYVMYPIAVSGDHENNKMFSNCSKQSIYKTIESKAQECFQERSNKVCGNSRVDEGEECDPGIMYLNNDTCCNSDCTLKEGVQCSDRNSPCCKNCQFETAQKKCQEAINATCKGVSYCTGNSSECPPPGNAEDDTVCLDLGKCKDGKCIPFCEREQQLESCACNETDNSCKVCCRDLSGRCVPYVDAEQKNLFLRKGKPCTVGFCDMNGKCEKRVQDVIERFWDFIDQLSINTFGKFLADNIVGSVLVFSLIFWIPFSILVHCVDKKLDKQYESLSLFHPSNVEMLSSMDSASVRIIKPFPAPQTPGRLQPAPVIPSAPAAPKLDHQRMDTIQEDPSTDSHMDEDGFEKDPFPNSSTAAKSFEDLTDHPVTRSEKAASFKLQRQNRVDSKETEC

Structure (SMILES) | HER2 cleavage (ADAM17, ADAM10) | clinical response rate (ADAM17, ADAM10) | pro-coagulant effects (adult patients) | deep venous thrombosis, incidence (solid tumors and breast cancer) | dose limiting toxicity (solid tumors and breast cancer) | severity of adverse effects (solid tumors and breast cancer) | reason for discontinued development (ADAM17) | proof of concept in sepsis and rheumatoid arthritis (ADAM17; clinical Phase II)
COC(=O)N1CC2(CC2)C[C@H](C(=O)NO)[C@H]1C(=O)N1CCN(c2ccccc2)CC1 [INCB7839, methyl (6S,7S)-7-(hydroxycarbamoyl)-6-(4-phenylpiperazine-1-carbonyl)-5-azaspiro[2.5]octane-5-carboxylate] | markedly reduced | markedly reduced | observed in some adult patients | 9/41 | deep venous thrombosis | mild to moderate |  | 
CON(Cc1ccc(F)cc1)C(=O)C=C1OC(C)(C)OC1=O [BMS-561392, Acetamide, 2-(2,2-dimethyl-5-oxo-1,3-dioxolan-4-ylidene)-N-((4-fluorophenyl)methyl)-N-methoxy-] |  |  |  |  |  |  | concerns over liver toxicity | beneficial effects
